# Columns and labels:
# [1] = test system: activator protein-1 (AP-1); experiment: Basal in vivo reporter luciferase expression in AP-1::Luc mice; conditions: data not shown
# [2] = test system: NF-κB dependent transcription; experiment: TNFα-induced activation of NF-κB in recombinant HeLa reporter cells (luciferase); format: cell-based; conditions: TNFα 20 ng/ml, 6 hours, HeLa NF-κB-luc
# Source text: To test the ACE2 inhibitor GL1001 for anti-inflammatory activity relevant to gastrointestinal inflammatory disease, more particularly pancreatitis, effects of the compound on activation of NF-κB dependent transcription by TNFα were examined in recombinant reporter cells containing a construct with a luciferase reporter gene under control of NF-κB dependent regulatory sequences, thereby allowing detection of NF-κB dependent transcription by measuring reporter enzyme using a conventional luciferase activity assay based on detection of generated light.
# In particular, HeLa cells (American Type Culture Collection) were grown in Dulbecco's modified Eagles medium (DMEM) supplemented with 10% fetal calf serum and transiently transfected with an NF-κB-luc construct (Stratagene, Inc.), as follows (with all incubation steps at 37 C unless otherwise indicated). Cells were seeded and grown to about 70% confluency in a 10 cm cell culture dish. Plasmid DNA (10 μg) was added to 1 ml serum free DMEM media in a tube. Fugene 6 transfection reagent (30 μl) (Roche) was then pipetted slowly into the tube and the contents were gently mixed by inversion. The mixture was incubated at room temperature for 15 minutes and then added dropwise to cells in one 10 cm dish. […] Bioluminescence was then measured using a Veritas luminometer (Turner BioSystems). […]
# [3] = test system: NF-κB dependent transcription; experiment: In vivo basal NF-κB dependent transcription in NF-κB::Luc reporter mice, abdominal imaging; conditions: 300 mg/kg s.c., 4 hours post administration; p<0.01
# Source text: GL1001 was further tested for in vivo anti-inflammatory activity by examining its effects on basal levels of NF-κB dependent transcription in mice engineered in the germline with a construct containing an NF-κB enhancer linked to a luciferase gene (i.e., NF-κB::Luc mice), such that this NF-κB reporter construct is present in all cells of the mice.
# More particularly, transgenic NF-κB::Luc mice were generated using three NF-κB response elements from the Igκ light chain promoter fused to a firefly luciferase gene as described by Carlsen et al. (2002) J. Immunol. 168:1441-1446. Pronuclear microinjection of purified construct DNA was used to generate transgenic founders in the C57BL/6 XCBA/J background. Founders were subsequently back crossed to the C57BL/6 albino background. […] Signal data were also quantitated and archived using the Living Image® software. Photons of light were quantitated using an oval region of interest (ROI) of varying sizes depending on the procedure, as described further below.
# To test for in vivo effects of GL1001 on basal levels of NF-κB dependent transcription, male NF-κB::Luc mice were subjected to quantitative in vivo imaging of the abdominal area (using a fixed ROI of 2.76×3.7 cm) as described above, immediately before, and at 2, […]
# [4] = test system: NF-κB dependent transcription; experiment: LPS-induced NF-κB dependent transcription in extracted organs of NF-κB::Luc mice (luciferase assay); format: in vivo; conditions: 30 mg/kg GL1001 + 0.5 mg/kg LPS vs LPS alone; stomach
# Source text: For luciferase assays, organs were extracted and snap frozen in liquid nitrogen. All tissue samples were placed in lysis buffer with inhibitors (Passive Lysis Buffer (Promega) and Complete Mini Protease Inhibitor Cocktail (Roche, Indianapolis, Ind.)), and were homogenized using a tissue homogenizer (Handishear, Hand-held homogenizer, VirTis, Gardiner, N.Y.). Tissue homogenates were centrifuged and clarified lysates were used for luminometer assays and western blots. For the luminometer assays, Luciferase Assay Substrate (Luciferase Assay System, Promega) was prepared as indicated by the manufacturer and placed in disposable cuvettes. […] Background luminescence readings were obtained and the background readings were subtracted from the luminescent data. Protein concentrations were determined using the BCA Protein Assay Kit (Pierce, Rockford, Ill.) following the manufacturer's protocols and analyzed using a VERSAmax tuneable microplate reader and associated Softmax Pro version 3.1.2 software (Molecular Devices, Sunnyvale Calif.). The luminescence for each of the protein lysates was calculated as arbitrary units of light per microgram of protein. […]
# GL1001 was further tested for in vivo anti-inflammatory activity by examining its effects on bacterial LPS induced NF-κB dependent transcription, in NF-κB::Luc mice. […] Luciferase signal was quantitated from several regions of interest. […]
# [5] = test system: spontaneous CP in male WBN/Kob rats; conditions: Kuno et al. (2003); cited from earlier work
# [6] = test system: acute pancreatitis induced by cerulein; conditions: Tsang et al. (2004); cited from earlier work
smiles,measurement,setting,value
"CC(C)C[C@H](N[C@@H](Cc1cncn1Cc1cc(Cl)cc(Cl)c1)C(=O)O)C(=O)O [GL1001, (S,S)-2-[1-carboxy-2-[3-(3,5-dichlorobenzyl)-3H-imidazol-4-yl]-ethylamino]-4-methylpentanoic acid]",effect on basal in vivo reporter luciferase expression,[1],no significant effect
same,inhibition of TNFα induced activation of NF-κB dependent transcription,[2]; at 8 nM,over 80%
same,maximal inhibition of TNFα induced activation of NF-κB dependent transcription,[2]; at 0.2 μM,over 95%
same,inhibition of basal in vivo NF-κB dependent transcription in abdominal ROI,[3],over 40%
same,reduction of LPS induced NF-κB-dependent transcription in stomachs,[4],about 37 fold
NCCCC[C@H](N[C@@H](CCc1ccccc1)C(=O)O)C(=O)N1CCC[C@H]1C(=O)O [lisinopril],pancreatic fibrosis in animal model of CP,[5],attenuated
CCCCc1nc(Cl)c(CO)n1Cc1ccc(-c2ccccc2-c2nn[nH]n2)cc1 [losartan],severity of acute pancreatitis induced by cerulein,[6],markedly reduced
